SMILES strings stand for the structures.

Among the data in patent US11230526B1, “Cylcoalkenyl derivatives useful as agonists of the GPR120 and/or GPR40 receptors” (Janssen Pharmaceutica NV, priority 2018, dated 2022) are EC50 values, retold here.

In this test the target is T1, long form of human GPR120 (Homo sapiens, UniProt Q5NUL3).
T1 construct: host or cells: PathHunter CHO-K1 GPR120 β-Arrestin Cell Line
T1 sequence (Q5NUL3 1-377 isoform Q5NUL3-1): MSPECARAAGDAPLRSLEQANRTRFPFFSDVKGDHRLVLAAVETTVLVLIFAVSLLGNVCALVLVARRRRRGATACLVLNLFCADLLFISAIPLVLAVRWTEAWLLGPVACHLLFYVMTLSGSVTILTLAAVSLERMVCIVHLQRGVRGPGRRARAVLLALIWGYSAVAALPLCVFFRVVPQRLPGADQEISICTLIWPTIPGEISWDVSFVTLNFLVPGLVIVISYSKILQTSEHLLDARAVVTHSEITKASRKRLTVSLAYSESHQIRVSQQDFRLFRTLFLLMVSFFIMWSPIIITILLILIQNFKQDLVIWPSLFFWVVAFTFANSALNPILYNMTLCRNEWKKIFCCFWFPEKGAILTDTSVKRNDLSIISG
T1 sequence (P32121 whole entry partner): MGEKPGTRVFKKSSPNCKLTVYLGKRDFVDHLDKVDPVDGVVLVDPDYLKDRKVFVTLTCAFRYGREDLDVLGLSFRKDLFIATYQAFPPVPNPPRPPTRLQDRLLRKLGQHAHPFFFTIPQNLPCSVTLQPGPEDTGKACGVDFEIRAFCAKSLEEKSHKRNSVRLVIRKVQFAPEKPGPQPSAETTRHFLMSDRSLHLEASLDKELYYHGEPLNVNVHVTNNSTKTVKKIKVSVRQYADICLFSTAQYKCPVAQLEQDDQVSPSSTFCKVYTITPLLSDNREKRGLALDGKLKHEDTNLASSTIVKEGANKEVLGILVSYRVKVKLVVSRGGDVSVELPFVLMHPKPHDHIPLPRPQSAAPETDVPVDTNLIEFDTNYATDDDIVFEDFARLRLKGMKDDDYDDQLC
The test can be described thus: Human GPR120 DiscoveRx PathHunter Beta-Arrestin assay, Procedure β-arrestin A. Type of test: cell-based. In short, it runs like this: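 PathHunter CHO-K1 cells expressing long-form human GPR120 (3000/well) were seeded overnight. They were then preincubated 60 min in HBSS with 20 mM HEPES and 0.1% BSA, pH 7.4, and exposed to compound for 90 min at 37 °C. β-Arrestin recruitment was read as β-gal complementation luminescence. EC50 came from % activity versus positive control, Hill slope fixed at 1.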
`Cc1c(CCC(=O)O)ccc(OCC2=C(c3ccc(Cl)cc3)CCC(F)(F)C2)c1C` [Compound 468, 3-[4-[[2-(4-chlorophenyl)-5,5-difluoro-cyclohexen-1-yl]methoxy]-2,3-dimethyl-phenyl]Propanoic Acid] came in with a 50% effective concentration (EC50) of 168 nM.

In the case of `Cc1c(CCC(=O)O)ccc(OCC2=C(c3ccc(Cl)cc3)CC(F)(F)C2)c1C` [Compound 137, 3-[4-[[2-(4-chlorophenyl)-4,4-difluoro-cyclopenten-1-yl]methoxy]-2,3-dimethyl-phenyl]Propanoic Acid], the EC50 amounted to 43 nM.

Regarding `Cc1ccc(C2=C(COc3ccc(CCC(=O)O)c(C)c3C)CCC2)cc1F` [Compound 80, 3-(4-((2-(3-fluoro-4-methylphenyl)cyclopent-1-en-1-yl)methoxy)-2,3-dimethylphenyl)Propanoic Acid], the EC50 stood at 73 nM.

With `Cc1c(CCC(=O)O)ccc(OCC2=C(c3ccc(Cl)cc3)CCCC2)c1C` [Compound 474, 3-[4-[[2-(4-chlorophenyl)cyclohexen-1-yl]methoxy]-2,3-dimethyl-phenyl]Propanoic Acid], the EC50 was 354 nM.

Usually EC50 stands for the concentration that produces a half-maximal response. Read a high EC50 as a need for much substance.
